Data published in US20080146641A1, “ANTIBACTERIAL COMPOSITION” (priority 2001, published 2008).
In brackets after ≈: the same amount, converted by molar mass. Where two headings read alike, the source gives them in different places.

Columns and labels:
[1] = test system: Clostridium perfingens NCTC 8283; type: cell-based, Clostridium perfringens; conditions: Comparison 1 is a reference value (suspension at not less than 1400 μg)
[2] = test system: Bacillus cereus IFO 13494; assay: Antibacterial spectrum, MIC on Muller Hinton Agar; type: cell-based; conditions: Comparison 1 is a reference value (suspension at not less than 1400 μg)
[3] = cited from earlier work
[4] = test system: Salmonella entriditis IFO 3313; assay: Antibacterial spectrum, MIC on Muller Hinton Agar; type: cell-based, Salmonella enteritidis; conditions: Comparison 1 is a reference value (suspension at not less than 1400 μg)
[5] = test system: Pseudomonas aeruginosa IFO 13275; assay: Antibacterial spectrum, MIC on Muller Hinton Agar; type: cell-based; conditions: Comparison 1 is a reference value (suspension at not less than 1400 μg)
[6] = test system: Lactobacillus plantarum (lactic acid bacterium) IFO 3070; assay: Antibacterial spectrum, MIC on Brain Heart Infusion Agar; type: cell-based; conditions: Comparison 1 is a reference value
[7] = test system: Escherichia coli IFO 3301; assay: Minimum inhibitory concentration, agar plate for measuring susceptibility; type: cell-based; conditions: for MIC: Escherichia coli, IFO3301, read-out: Minimum Inhibitory Concentration CaO, Escherichia coli IFO 3301 (Gram-negative bacteria)
[8] = test system: Enterococcus faecalis IFO 129B4; assay: Antibacterial spectrum, MIC on Muller Hinton Agar; type: cell-based; conditions: Comparison 1 is a reference value (suspension at not less than 1400 μg)
[9] = test system: Saccharomyces cerevisiae IFO 1950; assay: Antibacterial spectrum, MIC on Sabouraud Glucose agar medium; type: cell-based; conditions: Comparison 1 is a reference value
Experimental: […] Additionally, as to the other α-amino acids used as the raw materials, flat plates for measuring susceptibility each of which contains a 500 to 20,000 μg/ml α-amino acid were prepared. […] The bacterial liquid for inoculation was drawn In lines and painted 1 to 2 cm on each flat plate for measuring susceptibility with a plastic loop, and incubated at 35° C. 1° C. for 18 to 20 hours. The lowest concentrations in which the painted parts were blocked to grow were defined as the minimum bacteriostasis concentrations of the antibacterial compositions, and the calcium oxide, the calcium hydroxide, and the α-amino acids used as the raw materials in the embodiments 1 through 16.
The minimum inhibitory concentrations to these typical kinds of bacteria were measured, however, the antibacterial compositions of the present invention are not to be restricted to the kinds of bacteria shown in the embodiments. Although the measuring method was similar to that of the embodiment 17, as the culture media for measuring susceptibility, Muller Hinton Agar (Difco) was used for enterococcus, cereus, salmonella, and pseudomonas aeruginosa; Brain Heart Infusion Agar (Difco) was used for lactobacillus; GAM agar medium (Nissui Pharmaceutical Co., Ltd.) was used for welsh; and Sabouraud Glucoss agar medium (Eiken Chemical Co., Ltd.) was used for saccharomyces.

[10] = test system: Staphylococcus aureus IFO 12732; assay: Minimum inhibitory concentration, agar plate for measuring susceptibility; type: cell-based; conditions: for MIC: Staphylococcus aureus, IFO12732, read-out: Minimum Inhibitory Concentration CaO, Staphylococcus aureus IFO 12732 (Gram-positive bacteria)
[11] = Antibacterial effect, test not described
[12] = Table 2, raw materials, amino acid plates held 500 to 20,000 μg/ml α-amino acid

SMILES | MIC [7, 12] [µg/mL] | MIC [10, 12] [µg/mL] | further results
[O]=[Ca] [Comparison 1, calcium oxide] |  |  | Minimum Inhibitory Concentration CaO, Clostridium perfringens [1]: 5000 µg/mL; Minimum Inhibitory Concentration CaO, Bacilluscereus [2]: 2500 µg/mL; dissolves in water ([3]; 20° C.): 0.14 wt %; water-solubility ([3]; at 20° C.): 1400 μg/gH2O; Minimum Inhibitory Concentration CaO, Salmonella enteritidis [4]: 2500 µg/mL; Minimum Inhibitory Concentration CaO, Pseudomonas aeruginosa [5]: 2500 µg/mL; Minimum Inhibitory Concentration CaO, Lactobachillus faecalis [6]: 313 µg/mL; Minimum Inhibitory Concentration CaO; Escherichia coli IFO 3301 (Gram-negative bacteria) [7, 12]: 1250 µg/mL; Minimum Inhibitory Concentration CaO, Enterococcus faecalis [8]: 5000 µg/mL; Minimum Inhibitory Concentration CaO, Saccgaromyces cervisiae [9]: 625 µg/mL; Minimum Inhibitory Concentration CaO; Staphylococcus aureus IFO 12732 (Gram-positive bacteria) [10, 12]: 1000 µg/mL
[Ca+2].[OH-].[OH-] [Comparison 2, calcium hydroxide] |  |  | Minimum Inhibitory Concentration CaO; Escherichia coli IFO 3301 (Gram-negative bacteria) [7]: 900 µg/mL; Minimum Inhibitory Concentration CaO; Staphylococcus aureus IFO 12732 (Gram-positive bacteria) [10]: 850 µg/mL
NCC(=O)O [Comparison 3, glycine] | > 10000 | > 10000 | 
C[C@H](N)C(=O)O [Comparison 4, alanine] | > 10000 | > 10000 | 
CC(C)[C@H](N)C(=O)O [Comparison 5, valine] | > 10000 | > 10000 | 
CC(C)C[C@H](N)C(=O)O [Comparison 6, leucine] | > 10000 | > 10000 | 
CC[C@H](C)[C@H](N)C(=O)O [Comparison 7, isoleucine] | > 10000 | > 10000 | 
C[C@@H](O)[C@H](N)C(=O)O [Comparison 8, threonine] | > 20000 | > 20000 | 
N[C@@H](CSSC[C@H](N)C(=O)O)C(=O)O [Comparison 9, cystine] | > 20000 | 20000 (≈ 83.2 mM) | 
CSCC[C@H](N)C(=O)O [Comparison 10, Methionine] | > 10000 | > 10000 | 
NC(=O)C[C@H](N)C(=O)O [Comparison 11, asparagine] | > 20000 | > 20000 | 
NC(=O)CC[C@H](N)C(=O)O [Comparison 12, glutamine] | > 20000 | > 20000 | 
N[C@@H](Cc1c[nH]cn1)C(=O)O [Comparison 14, hystidine] |  |  | Minimum Inhibitory Concentration CaO; Escherichia coli IFO 3301 (Gram-negative bacteria) [7, 12]: >20000 µg/mL; Minimum Inhibitory Concentration CaO; Staphylococcus aureus IFO 12732 (Gram-positive bacteria) [10, 12]: >20000 µg/mL
N[C@@H](CC(=O)[O-])C(=O)[O-].[Ca+2] [aspartate calcium] |  |  | antibacterial effect / antibacterial property [11]: did not have antibacterial property
N[C@@H](CCC(=O)[O-])C(=O)[O-].[Ca+2] [calcium glutamate] |  |  | antibacterial effect / antibacterial property [11]: did not have antibacterial property
